Paper PMC11532494 (Nature Communications, 2024)
Where “and” joins values, the source holds several entries; their conditions need not be identical. Equal entries are not always repeated.

Columns and labels:
PsApaH (4) = PsApaH (4) (Pseudomonas sp. M30-35, UniProt A0A1Y0KY79); assay: Acetyl-polyamine deacetylase assay; format: biochemical; settings: for [acetate] (individual samples): acetate released from acetyl-polyamine substrate, Sample 1-3; for [acetate] mean: mean of samples
PA1409 = PA1409 (Pseudomonas aeruginosa, UniProt Q9I3T5); assay: Acetyl-polyamine deacetylase assay (positive control); format: biochemical; settings: for [acetate] (individual samples): PA1409, acetate released from acetyl-polyamine substrate, Sample 1-2; for [acetate] mean: mean of samples
Sequence of PA1409 (Q9I3T5 whole entry): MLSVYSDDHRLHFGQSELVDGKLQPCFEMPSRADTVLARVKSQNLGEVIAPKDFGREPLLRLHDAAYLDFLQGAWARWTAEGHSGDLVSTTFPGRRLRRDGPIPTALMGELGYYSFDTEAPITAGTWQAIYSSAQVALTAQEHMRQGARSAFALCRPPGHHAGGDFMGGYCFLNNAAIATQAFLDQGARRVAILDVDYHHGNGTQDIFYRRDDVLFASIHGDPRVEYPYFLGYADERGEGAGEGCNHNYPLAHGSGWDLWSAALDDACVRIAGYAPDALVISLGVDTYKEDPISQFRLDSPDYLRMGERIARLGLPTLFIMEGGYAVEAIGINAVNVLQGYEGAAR

Sequence of PsApaH (4) (A0A1Y0KY79 1-342 limits assumed): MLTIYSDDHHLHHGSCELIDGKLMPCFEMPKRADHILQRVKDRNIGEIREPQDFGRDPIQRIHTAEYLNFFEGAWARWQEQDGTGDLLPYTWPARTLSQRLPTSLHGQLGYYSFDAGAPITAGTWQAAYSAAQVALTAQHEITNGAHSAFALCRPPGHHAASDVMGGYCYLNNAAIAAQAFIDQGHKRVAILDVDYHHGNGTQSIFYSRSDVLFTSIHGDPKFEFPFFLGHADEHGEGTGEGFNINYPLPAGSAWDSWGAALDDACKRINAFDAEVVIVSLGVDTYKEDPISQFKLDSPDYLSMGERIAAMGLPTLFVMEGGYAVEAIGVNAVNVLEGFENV

| SMILES | [acetate] (individual samples) (PsApaH (4); time 5 min) | [acetate] (individual samples) (PsApaH (4); time 10 min) | [acetate] (individual samples) (PsApaH (4); time 20 min) | [acetate] (individual samples) (PsApaH (4); time 45 min) | [acetate] mean (PsApaH (4); time 5 min) [mM] | [acetate] mean (PsApaH (4); time 10 min) [mM] | [acetate] mean (PsApaH (4); time 20 min) [mM] | [acetate] mean (PsApaH (4); time 45 min) [mM] | [acetate] (individual samples) (PA1409; time 5 min) | [acetate] (individual samples) (PA1409; time 10 min) | [acetate] (individual samples) (PA1409; time 20 min) | [acetate] (individual samples) (PA1409; time 45 min) | [acetate] mean (PA1409; PA1409, time 5 min) [mM] | [acetate] mean (PA1409; PA1409, time 10 min) [mM] | [acetate] mean (PA1409; PA1409, time 20 min) [mM] | [acetate] mean (PA1409; PA1409, time 45 min) [mM] |
| --- | --- | --- | --- | --- | --- | --- | --- | --- | --- | --- | --- | --- | --- | --- | --- | --- |
| CC(=O)NCCCCCN [N1-acetylcadaverine] | 2.228 mM and 2.337 mM and 2.011 mM | 5.272 mM and 5.38 mM and 5.337 mM | 7.446 mM and 7.663 mM and 8.054 mM | 9.337 mM and 10.2283 mM and 9.967 mM | 2.192 | 5.33 | 7.721 | 9.844 | 3.7616 mM and 3.63 mM | 14.5405 mM and 14.4965 mM | 22.4156 mM and 22.0637 mM | 23.2955 mM and 23.4715 mM | 3.696 | 14.5185 | 22.2396 | 23.3835 |
| CC(=O)NCCCCN [N1-acetylputrescine] | 1.6 mM (2×) and 2.1 mM | 8.8 mM and 8.3 mM and 8 mM | 12 mM and 13 mM and 12.2 mM | 18 mM and 16.6 mM and 17.6 mM | 1.767 | 8.367 | 12.4 | 17.4 | 2.66 mM and 2.46 mM |  | 10.76 mM and 10.61 mM | 15.78 mM and 16.29 mM | 2.56 |  | 10.685 | 16.035 |
| CC(=O)NCCCNCCCCN [N1-acetylspermidine] | 0.06608 mM and 0.08811 mM | 0.06608 mM and 0.1322 mM | 0.3304 mM and 0.3084 mM | 0.2643 mM and 0.3965 mM | 0.07709 | 0.09912 | 0.3194 | 0.3304 | 1.542 mM and 1.762 mM | 8.1499 mM and 9.163 mM | 14.4496 mM and 14.5817 mM | 15.6831 mM and 14.9782 mM | 1.652 | 8.657 | 14.5156 | 15.3306 |
| CC(=O)NCCCNCCCCNCCCN [N1-acetylspermine] | 3.446 mM and 3.815 mM and 3.598 mM | 5.9022 mM and 5.728 mM and 6.011 mM | 8.6196 mM and 9.685 mM and 8.576 mM | 12.6414 mM and 13.25 mM and 13.0327 mM | 3.62 | 5.88 | 8.96 | 12.9747 | 4.758 mM and 5.242 mM | 18.4144 mM and 18.3703 mM | 24.4938 mM and 25.2427 mM | 26.7845 mM and 27.0048 mM | 5 | 18.3923 | 24.8682 | 26.8947 |
